{"source": "ChEMBL document CHEMBL6103589", "about": "“Synthesis and evaluation of novel ebselen derivatives as urease inhibitors for combating Helicobacter pylori infections” (Eur J Med Chem, 2025)", "key": {"[1]": {"assay": "Acute toxicity in BALB/c mouse assessed as change in stool color at 1 g/Kg, po single dose administered for 7 days", "format": "organism-based", "details": "in vivo, 1000 mg/kg, 168 h, time 7 day"}, "Helicobacter pylori [2]": {"tested_on": "Helicobacter pylori", "assay": "(§1) Protection against Helicobacter pylori ATCC 43504 infected (MOI 400:1) in human GES1 cell injury model assessed as viable cells at 50 uM pre-treated for 2 hrs followed by bacterial infection measured after 6 hrs by Annexin/V-FITC staining based flow cytometry analysis (reference value: 37.61%)", "format": "functional", "details": "time 8 hrs"}, "Helicobacter pylori [3]": {"tested_on": "Helicobacter pylori", "assay": "as §1, with “(MOI 300:1)” for “(MOI 400:1)”, “as early apoptotic” for “as viable”, “at 25” for “at 50”, “value: 34.57 %)” for “value: 37.61%)”", "format": "functional", "details": "time 8 hrs"}, "Helicobacter pylori [4]": {"tested_on": "Helicobacter pylori", "assay": "Protection against Helicobacter pylori ATCC 43504 infected (MOI 25:1) in human GES1 cell injury model assessed as late apoptotic cells at 50 uM pre-treated for 2 hrs measured after 6 hrs by Annexin/V-FITC staining based flow cytometry analysis (reference value: 0.31%)", "format": "functional", "details": "time 8 hrs"}, "Helicobacter pylori [5]": {"tested_on": "Helicobacter pylori", "assay": "as §1, with “as late apoptotic” for “as viable”, “at 25” for “at 50”, “value: 13.62%)” for “value: 37.61%)”", "format": "functional", "details": "time 8 hrs"}, "Helicobacter pylori [6]": {"tested_on": "Helicobacter pylori", "assay": "Protection against Helicobacter pylori ATCC 43504 infected (MOI 300:1) in human GES1 cell injury model assessed as viable cells at 50 uM pre-treated for 2 hrs followed by bacterial infection measured after 6 hrs by Annexin/V-FITC staining based flow cytometry analysis (reference value: 47.43%)", "format": "functional", "details": "time 8 hrs"}, "Helicobacter pylori [7]": {"tested_on": "Helicobacter pylori", "assay": "(§2) Protection against Helicobacter pylori ATCC 43504 infected (MOI 300:1) in human GES1 cell injury model assessed as necrotic cells at 25 uM pre-treated for 2 hrs followed by bacterial infection measured after 6 hrs by Annexin/V-FITC staining based flow cytometry analysis (reference value: 6.05%)", "format": "functional", "details": "time 8 hrs"}, "Helicobacter pylori [8]": {"tested_on": "Helicobacter pylori", "assay": "as §2, with “200:1)” for “300:1)”, “early apoptotic” for “necrotic”, “31.93 %)” for “6.05%)”", "format": "functional", "details": "time 8 hrs"}, "[9]": {"target": "Urease subunit alpha/Urease subunit beta (Helicobacter pylori (strain ATCC 700392 / 26695) (Campylobacterpylori), UniProt P69996)", "sequence (P69996 whole entry)": "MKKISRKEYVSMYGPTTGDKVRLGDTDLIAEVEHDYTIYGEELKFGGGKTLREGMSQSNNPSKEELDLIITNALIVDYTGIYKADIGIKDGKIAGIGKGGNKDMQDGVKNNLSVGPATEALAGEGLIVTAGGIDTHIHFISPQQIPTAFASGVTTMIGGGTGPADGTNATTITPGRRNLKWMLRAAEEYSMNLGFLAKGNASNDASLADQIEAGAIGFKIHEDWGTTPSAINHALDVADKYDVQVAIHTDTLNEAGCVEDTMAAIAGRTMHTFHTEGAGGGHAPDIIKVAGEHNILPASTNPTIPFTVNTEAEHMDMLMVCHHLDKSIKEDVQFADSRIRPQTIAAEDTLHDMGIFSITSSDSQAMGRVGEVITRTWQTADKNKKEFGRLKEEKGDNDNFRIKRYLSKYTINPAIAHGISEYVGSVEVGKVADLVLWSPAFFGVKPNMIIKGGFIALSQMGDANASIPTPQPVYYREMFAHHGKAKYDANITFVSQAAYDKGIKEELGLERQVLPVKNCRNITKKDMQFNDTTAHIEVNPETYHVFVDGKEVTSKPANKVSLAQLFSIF", "sequence (P14916 whole entry, further chain)": "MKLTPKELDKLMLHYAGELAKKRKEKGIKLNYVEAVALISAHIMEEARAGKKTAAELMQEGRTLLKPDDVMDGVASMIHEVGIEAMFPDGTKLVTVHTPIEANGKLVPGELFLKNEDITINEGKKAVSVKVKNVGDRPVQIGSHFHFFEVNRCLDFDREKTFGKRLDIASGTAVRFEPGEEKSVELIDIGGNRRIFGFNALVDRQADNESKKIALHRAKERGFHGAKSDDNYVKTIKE", "assay": "Inhibition of Helicobacter pylori ATCC 43504 urease preincubated for 75 mins followed by urea addition and measured after 30 mins by ELISA", "format": "protein-complex assay"}, "Helicobacter pylori [10]": {"tested_on": "Helicobacter pylori", "assay": "In vivo protection against Helicobacter pylori ATCC 43504 infected in BALB/c mouse gastric mucosa model assessed as appearance of intact tissue structure at 25 mg/kg administered once a day for 2 weeks by HE staining based analysis", "format": "functional, organism-based"}, "Helicobacter pylori [11]": {"tested_on": "Helicobacter pylori", "assay": "In vivo protection against Helicobacter pylori ATCC 43504 infected in BALB/c mouse gastric mucosa model assessed as reduction in hyperplasia at 25 mg/kg administered once a day for 2 weeks by HE staining based analysis", "format": "functional, organism-based"}, "Helicobacter pylori [12]": {"tested_on": "Helicobacter pylori", "assay": "Protection against Helicobacter pylori ATCC 43504 infected (MOI 100:1) in human GES1 cell injury model assessed as necrotic cells at 25 uM pre-treated for 2 hrs followed by bacterial infection measured after 6 hrs by Annexin/V-FITC staining based flow cytometry analysis (reference value: 2.82%)", "format": "functional", "details": "time 8 hrs"}, "Helicobacter pylori [13]": {"tested_on": "Helicobacter pylori", "assay": "In vivo protection against Helicobacter pylori ATCC 43504 infected in BALB/c mouse gastric mucosa model assessed as effect on infiltration at high dose administered once a day for 2 weeks by HE staining based analysis", "format": "functional, organism-based"}, "Helicobacter pylori [14]": {"tested_on": "Helicobacter pylori", "assay": "Protection against Helicobacter pylori ATCC 43504 infected (MOI 200:1) in human GES1 cell injury model assessed as necrotic cells at 25 uM pre-treated for 2 hrs followed by bacterial infection measured after 6 hrs by Annexin/V-FITC staining based flow cytometry analysis (reference value: 3.92%)", "format": "functional", "details": "time 8 hrs"}, "Helicobacter pylori [15]": {"tested_on": "Helicobacter pylori", "assay": "Protection against Helicobacter pylori ATCC 43504 infected (MOI 25:1) in human GES1 cell injury model assessed as viable cells at 50 uM pre-treated for 2 hrs followed by bacterial infection measured after 6 hrs by Annexin/V-FITC staining based flow cytometry analysis (reference value: 89.14%)", "format": "functional", "details": "time 8 hrs"}, "Helicobacter pylori [16]": {"tested_on": "Helicobacter pylori", "assay": "Antibacterial activity against Helicobacter pylori ATCC 43504 incubated for 24 hrs by broth dilution method", "format": "functional", "details": "dose 1-64 […]"}, "Helicobacter pylori [17]": {"tested_on": "Helicobacter pylori", "assay": "Protection against Helicobacter pylori ATCC 43504 infected (MOI 25:1) in human GES1 cell injury model assessed as necrotic cells at 25 uM pre-treated for 2 hrs followed by bacterial infection measured after 6 hrs by Annexin/V-FITC staining based flow cytometry analysis (reference value: 0.66%)", "format": "functional", "details": "time 8 hrs"}, "Helicobacter pylori [18]": {"tested_on": "Helicobacter pylori", "assay": "In vivo protection against Helicobacter pylori ATCC 43504 infected in BALB/c mouse gastric mucosa model assessed as appearance of intact muscularis mucosa at high dose administered once a day for 2 weeks by HE staining based analysis", "format": "functional, organism-based"}, "Helicobacter pylori [19]": {"tested_on": "Helicobacter pylori", "assay": "as §2, with “late apoptotic” for “necrotic”, “11.95%)” for “6.05%)”", "format": "functional", "details": "time 8 hrs"}, "[20]": {"assay": "Acute toxicity in BALB/c mouse assessed as pathological abnormality in kidney at 1 g/Kg, po single dose administered for 7 days by HE staining based analysis", "format": "organism-based", "details": "in vivo, 1000 mg/kg, 168 h, time 7 day"}, "Helicobacter pylori [21]": {"tested_on": "Helicobacter pylori", "assay": "In vivo protection against Helicobacter pylori ATCC 43504 infected in BALB/c mouse gastric mucosa model assessed as effect on bleeding at high dose administered once a day for 2 weeks by HE staining based analysis", "format": "functional, organism-based"}, "Helicobacter pylori [22]": {"tested_on": "Helicobacter pylori", "assay": "In vivo protection against Helicobacter pylori ATCC 43504 infected in BALB/c mouse gastric mucosa model assessed as effect on pathological lesion at low dose administered once a day for 2 weeks by HE staining based analysis", "format": "functional, organism-based"}, "Helicobacter pylori [23]": {"tested_on": "Helicobacter pylori", "assay": "as §1, with “late apoptotic” for “viable”, “13.62%)” for “37.61%)”", "format": "functional", "details": "time 8 hrs"}, "Helicobacter pylori [24]": {"tested_on": "Helicobacter pylori", "assay": "In vivo protection against Helicobacter pylori ATCC 43504 infected in BALB/c mouse gastric mucosa model assessed as effect on inflammatory cell infiltration at low dose administered once a day for 2 weeks by HE staining based analysis", "format": "functional, organism-based"}, "Helicobacter pylori [25]": {"tested_on": "Helicobacter pylori", "assay": "In vivo protection against Helicobacter pylori ATCC 43504 infected in BALB/c mouse gastric mucosa model assessed as appearance of intact sub-mucosa at high dose administered once a day for 2 weeks by HE staining based analysis", "format": "functional, organism-based"}}, "note": "Activity calls are given as the source filed them. No cut-off for these calls is given here."}
{"compound": "O=C(Oc1n[se]c2ccccc12)c1cccc(F)c1", "values": [{"measurement": "Activity", "setting": "[1]", "result": "Non-toxic"}, {"measurement": "Activity", "setting": "Helicobacter pylori [2]", "result": 89.4, "unit": "%"}, {"measurement": "Activity", "setting": "Helicobacter pylori [3]", "result": 15.81, "unit": "%"}, {"measurement": "Activity", "setting": "Helicobacter pylori [4]", "result": 0, "unit": "%"}, {"measurement": "Activity", "setting": "Helicobacter pylori [5]", "result": 0.32, "unit": "%"}, {"measurement": "Activity", "setting": "Helicobacter pylori [6]", "result": 92.33, "unit": "%"}, {"measurement": "Activity", "setting": "Helicobacter pylori [7]", "result": 0.31, "unit": "%"}, {"measurement": "Activity", "setting": "Helicobacter pylori [8]", "result": 12.06, "unit": "%"}, {"measurement": "IC50", "setting": "[9]", "result": 140, "unit": "nM"}, {"measurement": "Activity", "setting": "Helicobacter pylori [10]", "result": "Active"}, {"measurement": "Activity", "setting": "Helicobacter pylori [11]", "result": "Active"}, {"measurement": "Activity", "setting": "Helicobacter pylori [12]", "result": 0.43, "unit": "%"}, {"measurement": "Activity", "setting": "Helicobacter pylori [13]", "result": "Active"}, {"measurement": "Activity", "setting": "Helicobacter pylori [14]", "result": 0.12, "unit": "%"}, {"measurement": "Activity", "setting": "Helicobacter pylori [15]", "result": 99.06, "unit": "%"}, {"measurement": "Activity", "setting": "Helicobacter pylori [16]", "result": "Dose-dependent-effect"}, {"measurement": "MIC", "setting": "Helicobacter pylori [16]", "result": 8, "unit": "µg/mL"}, {"measurement": "Activity", "setting": "Helicobacter pylori [17]", "result": 0.02, "unit": "%"}, {"measurement": "Activity", "setting": "Helicobacter pylori [18]", "result": "Active"}, {"measurement": "Activity", "setting": "Helicobacter pylori [19]", "result": 0.02, "unit": "%"}, {"measurement": "Activity", "setting": "[20]", "result": "Non-toxic"}, {"measurement": "Activity", "setting": "Helicobacter pylori [21]", "result": "inactive"}, {"measurement": "Activity", "setting": "Helicobacter pylori [22]", "result": "inactive"}, {"measurement": "Activity", "setting": "Helicobacter pylori [23]", "result": 0.72, "unit": "%"}, {"measurement": "Activity", "setting": "Helicobacter pylori [24]", "result": "Active"}, {"measurement": "Activity", "setting": "Helicobacter pylori [25]", "result": "Active"}]}
